Test results: patent US12534456B2, “Heterocyclyl pyridines as novel fungicides” (Bayer Aktiengesellschaft, priority 2020, dated 2026)

Experiment: physchem
Format: physicochemical
Description: Measurement of Log P values as provided herein was performed according to EEC directive 79/831 Annex V.A8 by HPLC (High Performance Liquid Chromatography) on reversed phase columns with the following methods: • ^[a]
If more than one Log P value is available within the same method, all the values are given and separated by “+”.
Lambda-max-values were determined using UV-spectra from 200 nm to 400 nm and the peak values of the chromatographic signals

Row | Compound | LogP
1 | CCc1cccc(Oc2cnc(Cl)cc2C2=NOCC(Cc3ccc(C)cc3C)N2)c1 (racemic) [Compound I-092] | 5.04^[a]
2 | Cc1ccc(CC2CON=C(c3cc(Cl)ncc3Oc3cnc4ccccc4c3)N2)c(C)c1 (racemic) [Compound I-093] | 3.65^[a]
3 | Cc1ccc(CC2CN(C=O)N=C(c3cc(Cl)ncc3Oc3cccc(C(F)(F)F)c3)N2)c(C)c1 (racemic) [Compound I-094] | 4.49^[a]
4 | Cc1ccc(CC2CON=C(c3cc(Cl)ncc3Oc3cccc(S(C)(=O)=O)c3)N2)c(C)c1 (racemic) [Compound I-095] | 3.25^[a]
5 | Cn1cc(C2CON=C(c3cc(Cl)ncc3Oc3cccc(C(F)(F)F)c3)N2)c2ccccc21 (racemic) [Compound I-096] | 4.01^[a]
6 | C=Cc1cccc(Oc2cnc(Cl)cc2C2=NOCC(Cc3ccc(Cl)cc3Cl)N2)c1 (racemic) [Compound I-099] | 4.85^[a]
7 | Cc1ccc(CC2CON=C(c3cc(Cl)ncc3Oc3ccc4c(c3)CCC4)N2)c(C)c1 (racemic) [Compound I-100] | 5.16^[a]
8 | Cc1ccc(CC2CON=C(c3cc(Cl)ncc3Oc3cccc(C4CCC4)c3)N2)c(C)c1 (racemic) [Compound I-101] | 5.50^[a]
9 | Fc1c(Cl)cccc1Oc1cnc(Cl)cc1C1=NOCC(Cc2ccc(Cl)cc2Cl)N1 (racemic) [Compound I-102] | 4.71^[a]
10 | Cc1ccc(CC2CON=C(c3cc(Cl)ncc3Oc3cccc(Cl)c3)N2)c(Cl)c1 (racemic) [Compound I-103] | 4.66^[a]
11 | Cc1ccc(CC2CON=C(c3cc(Cl)ncc3Oc3cccc(Br)c3)N2)c(C)c1 (racemic) [Compound I-104] | 4.74^[a]
12 | FC(F)(F)c1cccc(Oc2cnc(Cl)cc2C2=NOCC(Cc3ccc(C(F)(F)F)cc3Cl)N2)c1 (racemic) [Compound I-105] | 4.84^[a]
13 | FC(F)(F)c1cccc(Oc2cnc(Cl)cc2C2=NCC(Cc3ccc(Cl)cc3)N2)c1 (racemic) [Compound I-106] | 2.45^[a]
14 | FC(F)(F)c1cccc(Oc2cnc(Cl)cc2C2=NOCCC(c3ccc(Cl)cc3)N2)c1 (racemic) [Compound I-108] | 2.12^[a]
15 | Cc1ccc(C2(C)NC(c3cc(Cl)ncc3Oc3cccc(C(F)(F)F)c3)=NO2)cc1 (racemic) [Compound I-109] | 4.59^[a]
16 | Cc1ccc(CC2CON=C(c3cc(Cl)ncc3Oc3cccc(C(F)(F)F)c3)N2)cc1 (racemic) [Compound I-110] | 4.31^[a]
17 | Cc1ccc(CC2CON=C(c3cc(Cl)ncc3Oc3ccc4c(c3)CCO4)N2)c(C)c1 (racemic) [Compound I-111] | 4.23^[a]
18 | CCN(C)c1cc(C2=NOCC(Cc3ccc(C)cc3Cl)N2)c(Oc2cccc(Cl)c2F)cn1 (racemic) [Compound I-112] | 4.59^[a]
19 | Cc1ccc(CC2CON=C(c3cc(Cl)ncc3Oc3cccc(C4COC4)c3)N2)c(C)c1 (racemic) [Compound I-113] | 3.68^[a]
20 | Cc1ccc(CC2CON=C(c3cc(Cl)ncc3Oc3ccc4c(c3)OC(F)(F)O4)N2)c(C)c1 (racemic) [Compound I-114] | 4.65^[a]
21 | Fc1c(Br)cccc1Oc1cnc(Cl)cc1C1=NOCC(Cc2ccc(Cl)cc2Cl)N1 (racemic) [Compound I-115] | 4.69^[a]
22 | Cc1ccc(CC2CON=C(c3cc(Cl)ncc3Oc3cccc4c3CCC4)N2)c(C)c1 (racemic) [Compound I-116] | 5.14^[a]
23 | CC(=O)c1cccc(Oc2cnc(Cl)cc2C2=NOCC(Cc3ccc(C)cc3C)N2)c1 (racemic) [Compound I-117] | 3.70^[a]
24 | Cc1ccc(Cl)c(CC2CON=C(c3cc(Cl)ncc3Oc3cccc(Cl)c3F)N2)c1 (racemic) [Compound I-118] | 4.52^[a]

Row | Compound | LogP
25 | Cc1ccc(CC2CON=C(c3cc(Cl)ncc3Oc3ccc4ccsc4c3)N2)c(C)c1 (racemic) [Compound I-119] | 4.59^[a]
26 | Cc1ccc(CC2CON=C(c3cc(Cl)ncc3Oc3ccc(OC(F)(F)F)cc3)N2)c(C)c1 (racemic) [Compound I-120] | 4.76^[a]
27 | CSc1c(Cl)ncc(Oc2cccc(C(F)(F)F)c2)c1C1=NOCC(Cc2ccc(C)cc2C)N1 (racemic) [Compound I-121] | 4.67^[a]
28 | Cc1ccc(CC2CON=C(c3c(Oc4cccc(C(F)(F)F)c4)cnc(Cl)c3C)N2)c(C)c1 (racemic) [Compound I-124] | 4.55^[a]
29 | FC(F)(F)c1cncc(Oc2cnc(Cl)cc2C2=NOCC(Cc3ccc(Cl)cc3Cl)N2)c1 (racemic) [Compound I-125] | 3.71^[a]
30 | COCCOc1cccc(Oc2cnc(Cl)cc2C2=NOCC(Cc3ccc(C)cc3C)N2)c1 (racemic) [Compound I-126] | 4.15^[a]
31 | Cc1ccc(CC2CON=C(c3cc(Cl)nc(Cl)c3Oc3cccc(C(F)(F)F)c3)N2)c(C)c1 (racemic) [Compound I-127] | 5.08^[a]
32 | FC(F)(F)c1cccc(Oc2cnc(Cl)cc2C2=NOCC(Cc3ccc(Cl)cc3Cl)N2)n1 (racemic) [Compound I-128] | 4.44^[a]
33 | COCCOc1c(Cl)ncc(Oc2cccc(C(F)(F)F)c2)c1C1=NOCC(Cc2ccc(C)cc2C)N1 (racemic) [Compound I-129] | 4.51^[a]
34 | Cc1ccc(CC2CON=C(c3cc(Cl)ncc3Oc3cccc(Cl)c3)N2)c(C)c1 (single isomer, unassigned) [Compound I-011] | 4.53^[a]
35 | Cc1ccc(CC2CON=C(c3cc(Cl)ncc3Oc3cccc(Cl)c3)N2)c(C)c1 (single isomer, unassigned) [Compound I-012] | 4.53^[a]
36 | Cc1ccc(CC2CON=C(c3cc(Cl)ncc3Oc3cccc(C4CC4)c3)N2)c(C)c1 (single isomer, unassigned) [Compound I-019] | 4.89^[a]
37 | Cc1ccc(CC2CON=C(c3cc(Cl)ncc3Oc3cccc(C4CC4)c3)N2)c(C)c1 (single isomer, unassigned) [Compound I-020] | 4.89^[a]
38 | Cc1ccc(CC2CON=C(c3cc(Cl)ncc3Oc3cccc(C4CC4)c3F)N2)c(C)c1 (single isomer, unassigned) [Compound I-021] | 4.93^[a]
39 | Cc1ccc(CC2CON=C(c3cc(Cl)ncc3Oc3cccc(C4CC4)c3F)N2)c(C)c1 (single isomer, unassigned) [Compound I-022] | 4.93^[a]
40 | O=C(NC(CON1C(=O)c2ccccc2C1=O)Cc1ccc(Br)cc1Cl)c1cc(Cl)ncc1Oc1cccc(C2CC2)c1 (centres unmarked) [3-02] | 5.75^[a]
41 | O=C(NC(CON1C(=O)c2ccccc2C1=O)Cc1ccc(Cl)cc1Cl)c1cc(Cl)ncc1Oc1cccc(C2CC2)c1 (centres unmarked) [3-03] | 5.62^[a]
42 | O=C(NC(CON1C(=O)c2ccccc2C1=O)Cc1ccc(Cl)cc1Cl)c1cc(Cl)ncc1Oc1cccc(C2CC2)c1F (centres unmarked) [3-04] | 5.54^[a]
43 | O=C(NC(CON1C(=O)c2ccccc2C1=O)Cc1ccc(Br)cc1Cl)c1cc(Cl)ncc1Oc1cccc(C2CC2)c1F (centres unmarked) [3-05] | 5.62^[a]
44 | Cc1ccc(CC(CON2C(=O)c3ccccc3C2=O)NC(=O)c2cc(Cl)ncc2Oc2cccc(C3CC3)c2F)c(C)c1 (centres unmarked) [3-06] | 5.38^[a]
45 | Cc1cccc(Oc2cnc(Cl)cc2C(=O)NC(CON2C(=O)c3ccccc3C2=O)Cc2ccc(C)cc2C)c1 (centres unmarked) [3-07] | 5.16^[a]
46 | COc1cccc(Oc2cnc(Cl)cc2C(=O)NC(CON2C(=O)c3ccccc3C2=O)Cc2ccc(Br)cc2Cl)c1 (centres unmarked) [3-08] | 5.05^[a]
47 | COc1cccc(Oc2cnc(Cl)cc2C(=O)NC(CON2C(=O)c3ccccc3C2=O)Cc2ccc(C)cc2C)c1 (centres unmarked) [3-09] | 4.80^[a]
